Results published in ChEMBL document CHEMBL1201862, “PubChem BioAssay data set” (2004).
Several values for one entry are separate records, joined by “and”; a condition that tells them apart may be missing. Equal entries are not always repeated. Activity calls are given as the source filed them.

How the values were obtained:
[1] = molecular target: T1, Replicative DNA helicase DnaB (Mycobacterium tuberculosis, UniProt P9WMR3); experiment: DnaB intein splicing inhibitors, dose response, biochemical, cell-free fluorescence (AID 449749); assay type: functional
T1 sequence (P9WMR3 whole entry): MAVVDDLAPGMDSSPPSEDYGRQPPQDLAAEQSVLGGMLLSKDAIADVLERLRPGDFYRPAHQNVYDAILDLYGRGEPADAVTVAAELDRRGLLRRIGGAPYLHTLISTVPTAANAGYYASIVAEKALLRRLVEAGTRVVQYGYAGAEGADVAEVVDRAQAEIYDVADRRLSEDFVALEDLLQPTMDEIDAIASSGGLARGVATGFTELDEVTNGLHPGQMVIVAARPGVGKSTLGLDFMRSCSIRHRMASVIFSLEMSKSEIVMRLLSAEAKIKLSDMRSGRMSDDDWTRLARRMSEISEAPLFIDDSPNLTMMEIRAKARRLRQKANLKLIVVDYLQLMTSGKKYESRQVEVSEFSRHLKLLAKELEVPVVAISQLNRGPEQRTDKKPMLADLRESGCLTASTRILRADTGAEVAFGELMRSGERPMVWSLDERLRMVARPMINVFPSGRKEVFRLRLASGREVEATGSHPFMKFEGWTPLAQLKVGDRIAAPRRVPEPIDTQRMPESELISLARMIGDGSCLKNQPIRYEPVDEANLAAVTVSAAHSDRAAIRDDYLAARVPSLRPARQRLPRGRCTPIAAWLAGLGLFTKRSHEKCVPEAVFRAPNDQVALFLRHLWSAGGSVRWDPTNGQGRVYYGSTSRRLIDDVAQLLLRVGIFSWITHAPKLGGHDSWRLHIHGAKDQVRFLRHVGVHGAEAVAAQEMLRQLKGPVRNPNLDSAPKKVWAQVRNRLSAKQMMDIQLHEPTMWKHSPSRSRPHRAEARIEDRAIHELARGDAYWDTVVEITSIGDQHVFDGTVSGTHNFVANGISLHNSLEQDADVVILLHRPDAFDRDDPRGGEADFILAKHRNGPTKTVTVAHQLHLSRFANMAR

[2] = molecular target: T2, Protein RecA (Mycobacterium tuberculosis, UniProt P9WHJ3); experiment: Fluorescence Cell-Free Homogeneous Dose Retest to Identify Inhibitors of RecA-Intein Splicing Activity. [Related pubchem assays (depositor defined):AID2097, AID2223, AID489010, AID492950]; assay type: functional
T2 sequence (P9WHJ3 whole entry): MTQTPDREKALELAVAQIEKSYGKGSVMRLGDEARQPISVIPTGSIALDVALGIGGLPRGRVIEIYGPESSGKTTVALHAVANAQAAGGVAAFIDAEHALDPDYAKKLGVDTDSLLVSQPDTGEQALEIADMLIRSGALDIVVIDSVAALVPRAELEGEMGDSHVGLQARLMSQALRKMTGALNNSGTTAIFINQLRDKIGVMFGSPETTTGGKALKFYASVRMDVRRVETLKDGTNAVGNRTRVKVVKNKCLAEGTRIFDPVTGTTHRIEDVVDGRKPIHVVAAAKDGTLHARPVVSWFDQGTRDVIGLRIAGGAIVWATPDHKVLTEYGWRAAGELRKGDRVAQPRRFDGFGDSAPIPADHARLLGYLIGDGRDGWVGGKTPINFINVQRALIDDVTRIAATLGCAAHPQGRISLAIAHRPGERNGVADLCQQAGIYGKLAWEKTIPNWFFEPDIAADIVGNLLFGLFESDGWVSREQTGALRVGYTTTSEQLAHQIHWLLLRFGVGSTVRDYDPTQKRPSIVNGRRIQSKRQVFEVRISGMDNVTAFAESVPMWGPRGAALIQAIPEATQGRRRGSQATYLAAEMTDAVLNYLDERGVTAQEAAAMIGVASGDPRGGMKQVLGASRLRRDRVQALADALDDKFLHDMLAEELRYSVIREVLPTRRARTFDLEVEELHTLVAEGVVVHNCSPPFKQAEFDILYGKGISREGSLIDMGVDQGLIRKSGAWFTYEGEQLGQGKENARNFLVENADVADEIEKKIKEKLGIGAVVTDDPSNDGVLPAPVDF

[3] = molecular target: Cytochrome P450 2C19 (Homo sapiens, UniProt P33261); experiment: Cytochrome panel assay with activity outcomes. Panel member name: p450-cyp2c19 Compounds with AC50 equal or less than 10 uM are considered active; assay type: functional
[4] = molecular target: T3, Cytochrome P450 2C9 (Homo sapiens, UniProt P11712)
[5] = molecular target: Cytochrome P450 3A4 (Homo sapiens, UniProt P08684);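 further: CYP3A4 tested as one member of a cytochrome P450 panel screen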
[6] = molecular target: Cytochrome P450 2D6 (Homo sapiens, UniProt P10635);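 further: CYP2D6 member of a cytochrome P450 panel assay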
[7] = molecular target: FAD-linked sulfhydryl oxidase ALR (Homo sapiens, UniProt P55789); experiment: inhibitors of human ALR sulfhydryl oxidase, dose response, biochemical, H2O2 detection, luminescence, cherry-pick (AID 493248)
[8] = P. falciparum Dd2 growth inhibitors, dose response, SYBR Green, cherry-picked samples (AID 1159567); assay type: functional, cell-based
[9] = NIH-3T3 fibroblast cytotoxicity, dose response, cytotoxicity control, cell-based, fluorescence, Alamar Blue, secondary assay (AID 2327); assay type: functional;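 further: NIH-3T3 mouse fibroblasts cultured with fluconazole at 8 µg/mL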
[10] = C. albicans growth with fluconazole, confirmation, fluorescence, retest (AID 2467); assay type: functional, cell-based
[11] = molecular target: T4, Cytochrome P450 1A2 (Homo sapiens, UniProt P05177);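 further: PubChem cytochrome P450 panel assay, CYP1A2 panel member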
T4 sequence (P05177 whole entry): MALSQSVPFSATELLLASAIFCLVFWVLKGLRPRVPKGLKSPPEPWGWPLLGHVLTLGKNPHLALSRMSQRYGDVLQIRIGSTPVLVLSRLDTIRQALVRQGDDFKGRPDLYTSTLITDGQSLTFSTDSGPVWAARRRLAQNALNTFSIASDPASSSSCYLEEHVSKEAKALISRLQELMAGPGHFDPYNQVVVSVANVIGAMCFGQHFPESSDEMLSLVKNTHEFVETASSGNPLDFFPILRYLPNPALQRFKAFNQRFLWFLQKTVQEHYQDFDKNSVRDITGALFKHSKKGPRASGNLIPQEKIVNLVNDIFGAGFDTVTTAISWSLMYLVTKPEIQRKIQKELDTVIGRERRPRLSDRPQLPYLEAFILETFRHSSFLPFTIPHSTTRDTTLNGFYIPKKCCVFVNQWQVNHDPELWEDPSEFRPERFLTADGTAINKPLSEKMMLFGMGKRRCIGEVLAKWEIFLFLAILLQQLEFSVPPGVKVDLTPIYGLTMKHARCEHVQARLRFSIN

[12] = molecular target: T3, Cytochrome P450 2C9; remark: listed apart in the source
[13] = molecular target: Large T antigen (Simian virus 40, UniProt P03070); assay type: functional, Betapolyomavirus macacae;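 further: Confirmatory-stage PubChem screen for compounds that inhibit SV40 T antigen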
Chain of Large T antigen (P03070 whole entry): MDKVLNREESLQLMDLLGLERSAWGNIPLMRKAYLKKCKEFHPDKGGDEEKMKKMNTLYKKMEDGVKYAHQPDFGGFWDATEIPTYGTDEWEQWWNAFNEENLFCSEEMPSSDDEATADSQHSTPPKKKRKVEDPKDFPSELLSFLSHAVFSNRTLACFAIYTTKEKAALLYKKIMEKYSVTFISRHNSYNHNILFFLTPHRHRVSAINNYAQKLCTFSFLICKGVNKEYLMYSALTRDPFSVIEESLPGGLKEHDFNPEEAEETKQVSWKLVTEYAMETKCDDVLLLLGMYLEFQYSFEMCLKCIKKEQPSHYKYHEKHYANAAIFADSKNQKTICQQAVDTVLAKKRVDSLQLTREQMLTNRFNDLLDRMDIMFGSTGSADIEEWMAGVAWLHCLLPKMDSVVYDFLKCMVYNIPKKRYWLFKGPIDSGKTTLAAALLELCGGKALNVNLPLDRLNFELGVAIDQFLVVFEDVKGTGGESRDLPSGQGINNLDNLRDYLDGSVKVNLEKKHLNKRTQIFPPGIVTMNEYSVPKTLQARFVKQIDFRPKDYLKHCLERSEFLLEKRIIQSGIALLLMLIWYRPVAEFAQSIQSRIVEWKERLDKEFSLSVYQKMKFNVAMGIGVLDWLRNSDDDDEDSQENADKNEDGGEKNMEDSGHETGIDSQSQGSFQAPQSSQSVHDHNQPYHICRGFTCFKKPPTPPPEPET

Chain of Cytochrome P450 2D6 (P10635 whole entry): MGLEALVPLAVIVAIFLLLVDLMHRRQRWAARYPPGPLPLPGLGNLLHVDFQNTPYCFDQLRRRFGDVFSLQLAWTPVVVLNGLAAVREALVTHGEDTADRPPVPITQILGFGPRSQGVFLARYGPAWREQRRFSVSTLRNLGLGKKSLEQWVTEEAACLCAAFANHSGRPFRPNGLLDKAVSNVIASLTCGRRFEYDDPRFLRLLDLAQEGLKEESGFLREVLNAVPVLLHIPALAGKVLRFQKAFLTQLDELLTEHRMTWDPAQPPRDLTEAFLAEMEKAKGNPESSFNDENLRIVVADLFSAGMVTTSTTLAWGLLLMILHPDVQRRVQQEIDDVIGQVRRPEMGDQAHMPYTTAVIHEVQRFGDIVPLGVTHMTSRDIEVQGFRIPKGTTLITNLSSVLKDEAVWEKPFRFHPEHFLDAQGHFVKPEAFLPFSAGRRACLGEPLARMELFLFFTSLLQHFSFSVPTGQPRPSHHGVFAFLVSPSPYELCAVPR
Chain of FAD-linked sulfhydryl oxidase ALR (P55789 whole entry): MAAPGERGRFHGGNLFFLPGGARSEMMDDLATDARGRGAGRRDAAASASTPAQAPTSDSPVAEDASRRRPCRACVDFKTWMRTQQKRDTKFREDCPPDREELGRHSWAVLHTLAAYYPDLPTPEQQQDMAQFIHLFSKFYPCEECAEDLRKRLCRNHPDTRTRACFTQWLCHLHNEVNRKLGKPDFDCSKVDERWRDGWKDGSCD
Chain of Cytochrome P450 3A4 (P08684 whole entry): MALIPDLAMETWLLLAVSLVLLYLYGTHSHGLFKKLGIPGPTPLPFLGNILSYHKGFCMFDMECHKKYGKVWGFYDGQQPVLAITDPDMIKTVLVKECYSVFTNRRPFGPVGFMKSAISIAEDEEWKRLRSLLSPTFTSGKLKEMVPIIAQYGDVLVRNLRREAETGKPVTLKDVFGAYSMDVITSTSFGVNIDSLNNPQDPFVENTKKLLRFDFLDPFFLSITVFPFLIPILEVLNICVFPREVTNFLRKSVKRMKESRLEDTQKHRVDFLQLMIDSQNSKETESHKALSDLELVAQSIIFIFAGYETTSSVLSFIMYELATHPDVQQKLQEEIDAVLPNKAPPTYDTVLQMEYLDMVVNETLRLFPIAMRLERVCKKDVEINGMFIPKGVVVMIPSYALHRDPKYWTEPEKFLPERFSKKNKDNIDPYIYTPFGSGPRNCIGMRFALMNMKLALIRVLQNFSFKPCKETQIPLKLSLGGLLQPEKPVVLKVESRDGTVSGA
T3 sequence (P11712 whole entry): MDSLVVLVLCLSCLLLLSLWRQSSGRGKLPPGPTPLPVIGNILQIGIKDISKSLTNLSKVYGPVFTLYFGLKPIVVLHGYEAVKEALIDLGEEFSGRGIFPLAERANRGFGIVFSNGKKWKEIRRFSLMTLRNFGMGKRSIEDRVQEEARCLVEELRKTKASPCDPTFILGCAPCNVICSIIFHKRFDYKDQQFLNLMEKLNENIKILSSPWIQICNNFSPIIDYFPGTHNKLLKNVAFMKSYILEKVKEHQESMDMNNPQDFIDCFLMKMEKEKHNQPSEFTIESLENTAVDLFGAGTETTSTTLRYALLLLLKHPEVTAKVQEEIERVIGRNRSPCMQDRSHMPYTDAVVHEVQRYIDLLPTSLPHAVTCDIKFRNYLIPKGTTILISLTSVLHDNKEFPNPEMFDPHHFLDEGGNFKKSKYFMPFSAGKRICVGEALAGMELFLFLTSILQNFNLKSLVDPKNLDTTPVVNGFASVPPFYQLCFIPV
Chain of Cytochrome P450 2C19 (P33261 whole entry): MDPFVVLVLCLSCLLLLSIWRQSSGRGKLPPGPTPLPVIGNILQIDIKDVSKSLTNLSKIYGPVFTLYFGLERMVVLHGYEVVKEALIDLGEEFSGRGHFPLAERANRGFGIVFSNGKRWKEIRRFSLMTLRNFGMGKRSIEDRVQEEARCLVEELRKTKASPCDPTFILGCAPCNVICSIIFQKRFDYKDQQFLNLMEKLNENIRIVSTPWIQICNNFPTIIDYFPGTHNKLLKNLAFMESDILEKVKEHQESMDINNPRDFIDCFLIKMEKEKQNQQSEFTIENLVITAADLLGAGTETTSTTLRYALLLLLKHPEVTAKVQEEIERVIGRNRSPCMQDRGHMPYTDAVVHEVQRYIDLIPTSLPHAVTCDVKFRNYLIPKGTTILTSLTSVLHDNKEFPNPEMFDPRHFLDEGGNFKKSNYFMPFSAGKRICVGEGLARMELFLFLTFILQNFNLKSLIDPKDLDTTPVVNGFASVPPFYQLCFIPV

Cc1nn(-c2ccccc2)c(O)c1/C=N/N1CCOCC1
AC50 [1]: 39.3 µM (active) | EC50 [2]: 31.7 µM (active)

CCOC(=O)N1CCN(C(=O)c2ccc(OC)c(OC)c2)CC1
AC50 ([3]; read-out: AC50): 25.1 µM (inconclusive) | AC50 [4]: inconclusive

COC(=O)c1ccc(/N=C2\C(Cl)=C(O)OC2OC(=O)c2ccccc2)cc1 (centres undefined)
AC50 [1]: 10.9 µM (active) | EC50 [2]: 17.8 µM (active)

Cc1cccc(S(=O)(=O)C(C#N)c2nc3ccccc3nc2N2CCCC2)c1 (centres undefined)
EC50 [2]: > 380 µM (inactive)

Cc1nc([N+](=O)[O-])c(Sc2nc3ccccc3[nH]2)n1Cc1ccccc1
AC50 [1]: 15.3 µM (active) | EC50 [2]: 12.3 µM (active)

O=C1OCCC1Sc1nnc(-c2ccc(O)cc2)o1 (centres undefined)
AC50 [5]: 7.08 µM (inconclusive) | AC50 [4]: inconclusive

CN(C)Cc1ccccc1-c1cncnc1NC1CC1
AC50 [6]: 25.1 µM (inconclusive)

CN(C)c1nc(Oc2ccc(/C=N/O)cc2)nc(N(C)C)n1
AC50 [7]: 0.156 µM (active)

COc1ccc2c3c(n(C)c2c1)[C@H](CO)N(C(=O)C1CC1)CC31CN(C(=O)C2CCOCC2)C1
AC50 [8]: 22.6 µM (active)

CC(=O)Oc1ccc(-c2cccc(C(=O)N(C)c3ccc(O)cc3)c2)cc1
AC50 [7]: 22.9 µM (active)

COc1ccc(N(C(=O)COc2cccc(C)c2)S(=O)(=O)c2ccc(C)cc2)cc1
AC50 [1]: 4.29 µM (active) | EC50 [2]: 4.53 µM (active)

Cc1cnc(CNc2ncnc3ccc(-c4cccc(NS(C)(=O)=O)c4)cc23)cn1
AC50 [6]: 25.1 µM (inconclusive) | AC50 [4]: inconclusive

O=c1c(-c2cc(F)cc(F)c2)nc2cncnc2n1C1CC1
AC50 [5]: 7.94 µM (inconclusive) | AC50 [4]: inconclusive

CCCOc1ccc(C(=O)OCCN(CC)CC)cc1N [PROPARACAINE]
AC50 [3]: inconclusive | AC50 [6]: 6.31 µM (inconclusive)

COc1ccc2cc(CCl)c(Cl)nc2c1
AC50 [7]: 5.78 µM (active)

O=C1CSC(c2ccccc2[N+](=O)[O-])N1c1cccc(F)c1 (centres undefined)
AC50 [7]: 0.689 µM (active)

COc1ccccc1NC(=O)N(C)C[C@H]1OCc2ccccc2-c2c(n(C)c3ccccc23)C(=O)N([C@@H](C)CO)C[C@@H]1C
AC50 [8]: 4.25 µM (active)

COCC(=O)Nc1ccc2c(c1)OC[C@H](C)N(Cc1ccncc1)C[C@H](C)[C@@H](OC)CN(C)C2=O
AC50 [8]: 25.2 µM (active)

CCC(=O)Nc1ccc2c(c1)OC[C@@H](C)N(Cc1ccccc1)C[C@@H](C)[C@H](OC)CN(C)C2=O
AC50 [8]: 5.57 µM (active)

Cc1ccccc1-c1nc(C[S+]([O-])CC(=O)NCCCN(C)c2ccccc2)c(C)o1 (centres undefined)
AC50 [6]: 25.1 µM (inconclusive) | AC50 [4]: inconclusive

N[C@@H](Cc1ncccn1)C(=O)O
AC50 [4]: inconclusive

O=C(NCc1ccco1)c1ccccc1NS(=O)(=O)c1ccc(Br)s1
EC50 [9]: > 160 µM (inactive) | EC50 [10]: 2.35 µM (active) | AC50 [11]: 14.1 µM (inconclusive)

COCc1n[nH]c2c1C(c1ccsc1)C(C#N)=C(N)O2 (centres undefined)
AC50 [1]: 21.1 µM (active) | EC50 [2]: 4.35 µM (active)

OC(c1ccccc1)(c1ccccc1)C1CCNCC1 [AZACYCLONOL]
AC50 [6]: 15.8 µM (inconclusive)

O=C(CCN1C(=O)c2cccc3cccc(c23)C1=O)N1CCN(Cc2ccc3c(c2)OCO3)CC1
AC50 [4]: inconclusive

Cc1ccc(S(=O)(=O)NC(CC(C)C)C(=O)Oc2ccc3c4c(c(=O)oc3c2)CCC4)cc1 (centres undefined)
AC50 [6]: 15.8 µM (inconclusive)

CC(=O)Nc1ccc(-n2cc(-c3ccccc3)[nH]c2=S)cc1
AC50 [7]: 6.42 µM (active)

O=C(NCc1ccccn1)C(=O)NCC(c1ccco1)N1CCN(c2ccc(F)cc2)CC1 (centres undefined)
AC50 [7]: 13.2 µM (active)

Cc1ccc(SCC(=O)Nc2ccc3c(c2)C(=O)N(C)C3=O)cc1
EC50 [9]: > 150 µM (inactive) | EC50 [10]: > 38 µM (not active)

CCCC(=O)Nc1ccc(N2CCN(CC)CC2)c(Cl)c1
AC50 [6]: 20 µM (inconclusive) | AC50 [12]: 0.178 µM (inconclusive)

COc1ccc2nc(Nc3ccccc3OC)sc2c1
AC50 [7]: 1.71 µM (active)

C/C(=N\NC(=O)CCC(=O)Nc1ccc(C)c(C)c1)C1CC1
EC50 [9]: > 150 µM (inactive) | EC50 [10]: > 38 µM (not active)

COc1ccc(C)cc1NC(=O)c1cc2cc3ccc(C)cc3nc2o1
AC50 [11]: 1.26 µM (inconclusive) | AC50 [4]: inconclusive

Cc1ccc(-c2csc(N)n2)s1
AC50 [7]: 0.732 µM (active)

COc1ccc(NC(=O)c2ccc(-c3ccc(-c4noc(C)n4)cc3C)cc2)cc1N1CCN(C)CC1 [GR-127935]
AC50 [6]: 20 µM (inconclusive) and 39.8 µM (inconclusive)

Cc1nn(Cc2c(F)c(F)c(F)c(F)c2F)c(C)c1NC(=O)c1cccc(COc2ccccc2Cl)c1
AC50 [6]: 0.794 µM (inconclusive) | AC50 [11]: 17.8 µM (inconclusive)

CC(=O)Nc1ccc(N2CCCCC2)cc1
IC50 [13]: 13.2 µM (active) | AC50 [7]: 2.96 µM (active) | AC50 [5]: 0.251 µM (inconclusive)

CC1CCCC(C)N1C(=O)c1ccccc1Nc1ccc(SC(F)F)cc1 (centres undefined)
AC50 [6]: 0.631 µM (inconclusive) | AC50 [11]: 17.8 µM (inconclusive)
